From patent US12521393B2, “Cytotoxicity targeting chimeras for CCR2-expressing cells” (GLAXOSMITHKLINE INTELLECTUAL PROPERTY DEVELOPMENT LIMITED, priority 2021, dated 2026)

What was measured:
[1] = system: endogenous target monocytes in human PBMC; assay: PBMC ex vivo monocyte depletion flow cytometry assay (Example 200); assay type: cell-based; conditions: with anti-cotinine antibody (SEQ ID NO: 11/12), 18-24 hours, EC50 in molar, read-out: Ex Vivo Depletion Assay pEC50 (converted)
Summary of the method: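 Monocyte depletion is reported as pEC50, averaged or given individually across runs, and read by flow cytometry staining CD45, CD14 and CD4 with a viability dye. Compounds, diluted four-fold over 11 points from 1 mM DMSO stocks, were combined with 30 μg/mL Fc-enhanced anti-cotinine antibody and human PBMC, then incubated 18-24 h at 37° C.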

[2] = system: CCR2 expressing cells (CD11b+Ly6c+Hi) in peripheral blood; assay: In vivo depletion assay, flow cytometry of peripheral blood (Example 201); parameters: species or system human CCR2 knock-in mice (C57 background); conditions: hCCR2 knock-in mice, IV 0.1 mpk compound + 10 mpk anti-cotinine antibody (SEQ ID NO: 13/14), peripheral blood at 48 hr
Summary of the method: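 Flow cytometry of blood collected at study termination quantified percent depletion of CD11b+Ly6c+Hi cells and CCR2 expression, using surface markers CD45, CD3, CD11b, Ly6C, human CCR2 after Fc block, with 7AAD viability stain. Compound given in saline:DMSO:PBS formulation, optionally combined with anti-cotinine antibody, incubated 30 min before administration.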

[3] = target: anti-cotinine antibody (SEQ ID NO: 11/12, rabbit variable region with human IgG1 Fc DE mutation); assay: SPR binding of anti-cotinine antibody to ARM compounds, Biacore T200, 37° C. (Example 202); conditions: SPR Biacore T200, 37° C., pH 7.4, antibody SEQ ID NO: 11/12 captured on protein A; Kd in molar
Summary of the method: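 Run at 37 °C in 10 mM HEPES pH 7.4, 150 mM NaCl, 0.005% P20, 1% DMSO, with compounds titrated from 200 nM (five 3-fold steps) over protein A–captured antibody. A 1:1 kinetic model on double-referenced data gave rate constants, Kd as koff/kon and residence time 1/koff; results as pKd, run-averaged.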

Structure (SMILES) | EC50 [1] | % Depletion of CCR2 expressing cells [2] | pKd of Antibody for ARM Compound of Formula (I) [3]
CC(C)N(C)[C@@H]1CC[C@H](N2CC[C@H](Nc3ncnc4ccc(C(F)(F)F)cc34)C2=O)[C@H](NC(=O)[C@H]2CC[C@@H](NC(=O)CCCOC[C@H]3CC[C@@H](COCCNC(=O)[C@H]4CC(=O)N(C)[C@@H]4c4cccnc4)CC3)CC2)C1 [Example 61, (2S,3S)-N-(2-(((1S,4R)-4-((4-(((1S,4S)-4-(((1R,2S,5R)-5-(Isopropyl(methyl)amino)-2-((S)-2-oxo-3-((6-(trifluoromethyl)quinazolin-4-yl)amino)pyrrolidin-1-yl)cyclohexyl)carbamoyl)cyclohexyl)amino)-4-oxobutoxy)methyl)cyclohexyl)methoxy)ethyl)-1-methyl-5-oxo-2-(pyridin-3-yl)pyrrolidine-3-carboxamide] | 0.316 nM | 92% | 9.558
CC(C)N(C)[C@@H]1CC[C@H](N2CC[C@H](Nc3ncnc4ccc(C(F)(F)F)cc34)C2=O)[C@H](NC(=O)COCCNC(=O)CNC(=O)CCOCCOCCNC(=O)[C@H]2CC(=O)N(C)[C@@H]2c2cccnc2)C1 [Example 80, (2S,3S)-N-(1-(((1R,2S,5R)-5-(Isopropyl(methyl)amino)-2-((S)-2-oxo-3-((6-(trifluoromethyl)quinazolin-4-yl)amino)pyrrolidin-1-yl)cyclohexyl)amino)-1,7,10-trioxo-3,13,16-trioxa-6,9-diazaoctadecan-18-yl)-1-methyl-5-oxo-2-(pyridin-3-yl)pyrrolidine-3-carboxamide] | 3.98 nM | 89% | 9.109
CC(C)N(C)[C@@H]1CC[C@H](N2CC[C@H](Nc3ncnc4ccc(C(F)(F)F)cc34)C2=O)[C@H](Nc2c(NCCOCCOCCOCCOCCOCCNC(=O)[C@H]3CC(=O)N(C)[C@@H]3c3cccnc3)c(=O)c2=O)C1 [Example 85, (2S,3S)-N-(17-((2-(((1R,2S,5R)-5-(Isopropyl(methyl)amino)-2-((S)-2-oxo-3-((6-(trifluoromethyl)quinazolin-4-yl)amino)pyrrolidin-1-yl)cyclohexyl)amino)-3,4-dioxocyclobut-1-en-1-yl)amino)-3,6,9,12,15-pentaoxaheptadecyl)-1-methyl-5-oxo-2-(pyridin-3-yl)pyrrolidine-3-carboxamide] | 2 nM | 57% | 9.6885
CC(C)N(C)[C@@H]1CC[C@H](N2CC[C@H](Nc3ncnc4ccc(C(F)(F)F)cc34)C2=O)[C@H](NC(=O)[C@H]2CC[C@@H](NC(=O)CCOCCNC(=O)COCCNC(=O)[C@H]3CC(=O)N(C)[C@@H]3c3cccnc3)CC2)C1 [Example 98, (2S,3S)-N-(2-(2-((2-(3-(((1S,4s)-4-(((1R,2S,5R)-5-(Isopropyl(methyl)amino)-2-((S)-2-oxo-3-((6-(trifluoromethyl)quinazolin-4-yl)amino)pyrrolidin-1-yl)cyclohexyl)carbamoyl)cyclohexyl)amino)-3-oxopropoxy)ethyl)amino)-2-oxoethoxy)ethyl)-1-methyl-5-oxo-2-(pyridin-3-yl)pyrrolidine-3-carboxamide] | 0.398 nM | 88% | 9.0095
CC(C)N(C)[C@@H]1CC[C@H](N2CC[C@H](Nc3ncnc4ccc(C(F)(F)F)cc34)C2=O)[C@H](NC(=O)CCOCCNC(=O)[C@H]2CC[C@H](NC(=O)COCCNC(=O)[C@H]3CC(=O)N(C)[C@@H]3c3cccnc3)CC2)C1 [Example 108, (2S,3S)-N-(2-(2-(((1R,4S)-4-((2-(3-(((1R,2S,5R)-5-(Isopropyl(methyl)amino)-2-((S)-2-oxo-3-((6-(trifluoromethyl)quinazolin-4-yl)amino)pyrrolidin-1-yl)cyclohexyl)amino)-3-oxopropoxy)ethyl)carbamoyl)cyclohexyl)amino)-2-oxoethoxy)ethyl)-1-methyl-5-oxo-2-(pyridin-3-yl)pyrrolidine-3-carboxamide] | 0.398 nM | 93% | 8.9855
CC(C)N(C)[C@@H]1CC[C@H](N2CC[C@H](Nc3ncnc4ccc(C(F)(F)F)cc34)C2=O)[C@H](NC(=O)CCOCCOCCNC(=O)NCCOCCOCCNC(=O)[C@H]2CC(=O)N(C)[C@@H]2c2cccnc2)C1 [Example 119, (2S,3S)-N-(20-(((1R,2S,5R)-5-(Isopropyl(methyl)amino)-2-((S)-2-oxo-3-((6-(trifluoromethyl)quinazolin-4-yl)amino)pyrrolidin-1-yl)cyclohexyl)amino)-10,20-dioxo-3,6,14,17-tetraoxa-9,11-diazaicosyl)-1-methyl-5-oxo-2-(pyridin-3-yl)pyrrolidine-3-carboxamide] | 1.58 nM | 77% | 9.1735
CC(C)N(C)[C@@H]1CC[C@H](N2CC[C@H](Nc3ncnc4ccc(C(F)(F)F)cc34)C2=O)[C@H](NC(=O)[C@H]2CC[C@H](NC(=O)CCCOCCCCOCCNC(=O)[C@H]3CC(=O)N(C)[C@@H]3c3cccnc3)CC2)C1 [Example 121, (2S,3S)-N-(2-(4-(4-(((1R,4r)-4-(((1R,2S,5R)-5-(Isopropyl(methyl)amino)-2-((S)-2-oxo-3-((6-(trifluoromethyl)quinazolin-4-yl)amino)pyrrolidin-1-yl)cyclohexyl)carbamoyl)cyclohexyl)amino)-4-oxobutoxy)butoxy)ethyl)-1-methyl-5-oxo-2-(pyridin-3-yl)pyrrolidine-3-carboxamide] | 1.26 nM | 69% | 9.332
CC(C)N(C)[C@@H]1CC[C@H](N2CC[C@H](Nc3ncnc4ccc(C(F)(F)F)cc34)C2=O)[C@H](NC(=O)CCNC2CCC3(CC2)CCN(CCCNC(=O)[C@H]2CC(=O)N(C)[C@@H]2c2cccnc2)CC3)C1 [Example 138, (2S,3S)-N-(3-(9-((3-(((1R,2S,5R)-5-(Isopropyl(methyl)amino)-2-((S)-2-oxo-3-((6-(trifluoromethyl)quinazolin-4-yl)amino)pyrrolidin-1-yl)cyclohexyl)amino)-3-oxopropyl)amino)-3-azaspiro[5.5]undecan-3-yl)propyl)-1-methyl-5-oxo-2-(pyridin-3-yl)pyrrolidine-3-carboxamide] | 0.158 nM | 74.67% | 9.0865
CC(C)N(C)[C@@H]1CC[C@H](N2CC[C@H](Nc3ncnc4ccc(C(F)(F)F)cc34)C2=O)[C@H](NC(=O)[C@H]2CC[C@@H](NC(=O)COCCNC(=O)CCOCCNC(=O)[C@H]3CC(=O)N(C)[C@@H]3c3cccnc3)CC2)C1 [Example 152, (2S,3S)-N-(2-(3-((2-(2-(((1S,4s)-4-(((1R,2S,5R)-5-(Isopropyl(methyl)amino)-2-((S)-2-oxo-3-((6-(trifluoromethyl)quinazolin-4-yl)amino)pyrrolidin-1-yl)cyclohexyl)carbamoyl)cyclohexyl)amino)-2-oxoethoxy)ethyl)amino)-3-oxopropoxy)ethyl)-1-methyl-5-oxo-2-(pyridin-3-yl)pyrrolidine-3-carboxamide] | 1.26 nM | 82% | 9.111
